{"source": "patent US12110496B2", "about": "“Method of determining the zygosity of event MON 88302” (priority 2010, dated 2024)", "key": {"[1]": {"tested_on": "Brassica napus events from construct 2", "test": "First year efficacy field trials, construct 2 events", "assay_type": "in vivo", "protocol": "The 25 events were also evaluated in first year field testing for efficacy located at the same testing site as the agronomy field trials. Efficacy field trials were initiated to evaluate the vegetative and reproductive tolerance of the events to sequential applications of glyphosate at various application timings and rates. The 16 R2 events from construct 1 were evaluated at 5 locations. The 3 R2 events from construct 2, the 3 R2 events from construct 4, and the 3 R2 events from construct 5 were evaluated at 4 locations. Each study contained the positive isoline of each event and two commercial varieties. […]\nEvents were evaluated for vegetative and reproductive tolerance to either a single application of 1.6 lb AE/A or two sequential applications of 0.8 lb AE/A when applied from crop emergence up to first flower. […]\n(§1) Data Collection was performed as above. Glyphosate injury was assessed as follows. […] Vegetative injury was rated after the first glyphosate application while reproductive percent chlorosis/necrosis was evaluated after the second application using a scale ranging from 0% (no injury) to 100% (plant death). Growth reduction was evaluated at 14 to 21 days after each application using a scale ranging from 0 to 100%. Vegetative growth reduction was evaluated after the first application while reproductive growth reduction was determined after the sequential application. […]"}, "[2]": {"tested_on": "canola comprising event RT73 (Genuity Roundup Ready Canola, variety 34-65)", "test": "Field trial of glyphosate tolerance, RT73 event (crop injury, maturity, seed moisture, yield)", "assay_type": "in vivo, Brassica napus", "excerpt": "(§2) The current registered glyphosate rate for the Genuity™ Roundup Ready® Canola system (event RT73) is a single application of 675 g ae/ha or two 450 g ae/ha applications up to the six leaf stage of the canola crop. RT73 was compared with the MON 88302 event at multiple single application rates of glyphosate. Applications were made from post emergence to the first flower of the canola crop. The Genuity™ Roundup Ready® Canola system (RT73 event) was represented by the commercial open pollinated variety 34-65, and event MON88302 was transformed into the Ebony germplasm.\n(§3) Eight trials were established with six taken to harvest (one site was lost to drought and one site was lost to hail, and data from one harvested site was not used due to the coefficient of variation (CV) exceeding the predetermined cut-off value). Standard canola growing practices were utilized throughout the season to optimize plant growth. Pre-emergent and post-emergent conventional herbicides and seed treatment containing fungicide and insecticide were used to minimize pest pressure. Trials were set up as a split block design with Genuity™ Roundup Ready® Canola (RT73 event) or MON 88302 systems blocked and herbicide rates randomized within the block. Plots were two by six meters and replicated three times. Plots were sprayed with handheld boom sprayers at 100-110 l/ha application rate at the appropriate crop stage. The Canadian formulation of Roundup WeatherMAX® (540 g/L) was used as the glyphosate product. The four to six leaf stage was defined as four to six true leaves on the main stem, and first flower was when 50% of the plants had at least one flower. Percent chlorosis (% CHLR) was recorded seven to ten days after herbicide application (DAT or days after treatment). Percent chlorosis is a visual estimate of the amount of yellowing on the leaves of plants as a result of herbicide treatment compared to the untreated check on a 1 to 100 scale. Percent growth reduction (% GR) was recorded 14-21 days after herbicide application (DAT). Percent growth reduction is a visual evaluation used to describe plant growth reduction consisting of, but not limited to, reduced height and/or quantity of foliage for the treated area. The evaluation pertains only to the above ground portion of the plant. Percent growth reduction is compared to the non-treated check and is rated on a 1 to 100 scale. Maturity was recorded as days after planting to when 30% of the seeds on the main raceme are brown/black in color. Percent seed moisture was recorded electronically during harvesting. All plots were swathed and then allowed to dry until seed moisture was low enough to facilitate harvesting. Weight and seed moisture was recorded electronically during harvesting and converted to bushels/acre at 10% seed moisture. Each location was analyzed individually and averages across locations were analyzed using statistical software. Data were screened for outliers using the standard two-pass procedure based on deleted studentized residuals using a False Discovery Rate (FDR) adjustment for an experiment-wise Type I error rate of 5% at each location. Outliers were removed prior to analysis. The standard analysis of variance for a split-plot design was performed by mixed model with restricted maximum likelihood estimation-variety and herbicide treatments were treated as fixed effects, replications and locations were random effects. Least-squares means were calculated for each variety and each treatment, and t-tests with comparison-wise error rates of 5% were used to determine the significance between variety and control at each herbicide treatment level on canola growth characteristics. Crop injury, maturity, and yield were measured to assess benefits."}, "[3]": {"tested_on": "canola comprising event MON 88302 (Ebony germplasm)", "test": "Field trial of glyphosate tolerance, MON 88302 event (crop injury, maturity, seed moisture, yield)", "assay_type": "in vivo, Brassica napus", "conditions": "for 7-10 DAT % CHLR Avg / 14-21 DAT % GR Avg: MON88302", "excerpt": "as §2, §3"}, "[4]": {"tested_on": "Brassica napus events from construct 1", "test": "First year efficacy field trials, construct 1 events", "assay_type": "in vivo", "protocol": "The 25 events were also evaluated in first year field testing for efficacy located at the same testing site as the agronomy field trials. Efficacy field trials were initiated to evaluate the vegetative and reproductive tolerance of the events to sequential applications of glyphosate at various application timings and rates. The 16 R2 events from construct 1 were evaluated at 5 locations. The 3 R2 events from construct 2, the 3 R2 events from construct 4, and the 3 R2 events from construct 5 were evaluated at 4 locations. Each study contained the positive isoline of each event and two commercial varieties. A split plot design with 3 replications was used with herbicide treatments as whole plots and event entries as subplots. A non-sprayed treatment was included for comparison.\nEvents were evaluated for vegetative and reproductive tolerance to either a single application of 1.6 lb AE/A or two sequential applications of 0.8 lb AE/A when applied from crop emergence up to first flower. Roundup WeatherMAX® was applied at three different rates that were equivalent to 2×, 4×, and 8× of the single application rate (Table 2). The initial application was made at the four leaf stage followed by a second application at the prebolt stage. […]\nas §1, with “application. Least-squares means were calculated for each combination of glyphosate level and event, and t-tests were used to determine the significance of the effects of glyphosate on event tolerance.” for “application.”"}, "[5]": {"conditions": "glyphosate 450 g ae/ha at 1st flower"}, "[6]": {"conditions": "glyphosate 450 g ae/ha at 4-6 leaf"}, "[7]": {"conditions": "glyphosate 900 g ae/ha at 1st flower"}, "[8]": {"conditions": "glyphosate 900 g ae/ha at 4-6 leaf"}, "[9]": {"conditions": "glyphosate 1800 g ae/ha at 1st flower"}, "[10]": {"conditions": "glyphosate 1800 g ae/ha at 4-6 leaf"}, "[11]": {"conditions": "glyphosate 3600 g ae/ha at 1st flower"}, "[12]": {"conditions": "glyphosate 3600 g ae/ha at 4-6 leaf"}, "[13]": {"conditions": "glyphosate 11800 g ae/ha at 4-6 leaf"}}}
{"smiles": "O=C(O)CNCP(=O)(O)O", "note": "[glyphosate, N-phosphonomethyl-glycine]", "values": [{"measurement": "yield", "setting": "[1]; all construct 2 events, regardless of application rate", "value": "significantly reduced the yield"}, {"measurement": "injury", "setting": "[1]; construct 2 events, all glyphosate rates tested", "value": "Unacceptable levels of injury"}, {"measurement": "yield reduction", "setting": "[2]; 2× the proposed rate of 1800 g ae/ha at four to six leaf", "value": 30, "unit": "%"}, {"measurement": "yield vs unsprayed", "setting": "[2]; 1800 and 3600 g ae/ha at both stages and 900 g/ha at first flower", "value": "significant yield reduction"}, {"measurement": "yield reduction", "setting": "[2]; 1800 g ae/ha at four to six leaf", "value": 11.4, "unit": "%"}, {"measurement": "maturity", "setting": "[2]; 3600 g ae/ha at both four to six leaf and first flower", "value": "delayed significantly"}, {"measurement": "yield reduction", "setting": "[2]; all rates shown at first flower (FIG. 3)", "value": "significant yield reduction"}, {"measurement": "7-10 DAT % CHLR Avg", "setting": "[2]; [5]", "value": 0.6, "unit": "%"}, {"measurement": "14-21 DAT % GR Avg", "setting": "[2]; [5]", "value": 0.8, "unit": "%"}, {"measurement": "7-10 DAT % CHLR Avg", "setting": "[2]; [6]", "value": 0.3, "unit": "%"}, {"measurement": "14-21 DAT % GR Avg", "setting": "[2]; [6]", "value": 0.9, "unit": "%"}, {"measurement": "7-10 DAT % CHLR Avg", "setting": "[2]; [7]", "value": 1.8, "unit": "%"}, {"measurement": "14-21 DAT % GR Avg", "setting": "[2]; [7]", "value": 0.3, "unit": "%"}, {"measurement": "7-10 DAT % CHLR Avg", "setting": "[2]; [8]", "value": 2.2, "unit": "%"}, {"measurement": "14-21 DAT % GR Avg", "setting": "[2]; [8]", "value": 1.3, "unit": "%"}, {"measurement": "7-10 DAT % CHLR Avg", "setting": "[2]; [9]", "value": 6.7, "unit": "%"}, {"measurement": "14-21 DAT % GR Avg", "setting": "[2]; [9]", "value": 3.3, "unit": "%"}, {"measurement": "7-10 DAT % CHLR Avg", "setting": "[2]; [10]", "value": 4.7, "unit": "%"}, {"measurement": "14-21 DAT % GR Avg", "setting": "[2]; [10]", "value": 5.3, "unit": "%"}, {"measurement": "7-10 DAT % CHLR Avg", "setting": "[2]; [11]", "value": 10, "unit": "%"}, {"measurement": "14-21 DAT % GR Avg", "setting": "[2]; [11]", "value": 8.1, "unit": "%"}, {"measurement": "7-10 DAT % CHLR Avg", "setting": "[2]; glyphosate 3600 g ae/ha at 1st flower, listed as Glyphosate", "value": 10.0, "unit": "%"}, {"measurement": "7-10 DAT % CHLR Avg", "setting": "[2]; [12]", "value": 10, "unit": "%"}, {"measurement": "14-21 DAT % GR Avg", "setting": "[2]; [12]", "value": 20.8, "unit": "%"}, {"measurement": "7-10 DAT % CHLR Avg", "setting": "[2]; glyphosate 3600 g ae/ha at 4-6 leaf, listed as Glyphosate", "value": 10.0, "unit": "%"}, {"measurement": "7-10 DAT % CHLR Avg", "setting": "[3]; [5]", "value": 0.0, "unit": "%"}, {"measurement": "14-21 DAT % GR Avg", "setting": "[3]; [5]", "value": 0.0, "unit": "%"}, {"measurement": "7-10 DAT % CHLR Avg", "setting": "[3]; [6]", "value": 0.0, "unit": "%"}, {"measurement": "14-21 DAT % GR Avg", "setting": "[3]; [6]", "value": 0.3, "unit": "%"}, {"measurement": "7-10 DAT % CHLR Avg", "setting": "[3]; [7]", "value": 0.3, "unit": "%"}, {"measurement": "14-21 DAT % GR Avg", "setting": "[3]; [7]", "value": 0.8, "unit": "%"}, {"measurement": "7-10 DAT % CHLR Avg", "setting": "[3]; [8]", "value": 0.7, "unit": "%"}, {"measurement": "14-21 DAT % GR Avg", "setting": "[3]; [8]", "value": 0.7, "unit": "%"}, {"measurement": "7-10 DAT % CHLR Avg", "setting": "[3]; [9]", "value": 0.9, "unit": "%"}, {"measurement": "14-21 DAT % GR Avg", "setting": "[3]; [9]", "value": 0.0, "unit": "%"}, {"measurement": "7-10 DAT % CHLR Avg", "setting": "[3]; [11]", "value": 4.7, "unit": "%"}, {"measurement": "14-21 DAT % GR Avg", "setting": "[3]; [11]", "value": 1.1, "unit": "%"}, {"measurement": "7-10 DAT % CHLR Avg", "setting": "[3]; [12]", "value": 1.7, "unit": "%"}, {"measurement": "14-21 DAT % GR Avg", "setting": "[3]; [12]", "value": 0.3, "unit": "%"}, {"measurement": "7-10 DAT % CHLR Avg", "setting": "[3]; [13]", "value": 1.7, "unit": "%"}, {"measurement": "14-21 DAT % GR Avg", "setting": "[3]; [13]", "value": "no percent growth reduction"}, {"measurement": "14-21 DAT % GR Avg", "setting": "[3]; glyphosate 11800 g ae/ha at 4-6 leaf, listed as Glyphosate", "value": 0.0, "unit": "%"}, {"measurement": "yield reduction", "setting": "[3]; MON 88302 plants, 1800 g ae/ha and 2× at four to six leaf (FIG. 2)", "value": "No significant yield reductions"}, {"measurement": "maturity", "setting": "[3]; MON 88302 plants, 1800 g ae/ha at four to six leaf", "value": "significant shortening of maturity"}, {"measurement": "maturity", "setting": "[3]; MON 88302 plants, all rates except 1800 g ae/ha at four to six leaf", "value": "No delay in maturity"}, {"measurement": "yield vs unsprayed", "setting": "[3]; MON 88302 plants, any rate or timing", "value": "No significant differences in yield"}, {"measurement": "yield reduction", "setting": "[3]; MON 88302 plants, glyphosate rates at first flower (FIG. 3)", "value": "No significant yield reductions"}, {"measurement": "vegetative injury", "setting": "[4]; 2× product concept rate", "value": "very minor"}, {"measurement": "yield", "setting": "[4]; regardless of rate, one event excepted at 6.4 lb AE/A followed by 6.4 lb AE/A", "value": "not negatively impacted"}, {"measurement": "vegetative and reproductive tolerance to glyphosate", "setting": "[4]; sequential applications at four leaf and prebolt, 2×, 4×, 8× rates", "value": "excellent vegetative and reproductive tolerance"}]}
